Data as given in patent publication US9458217B2, “Methods of managing graft versus host disease” (EMORY UNIVERSITY, priority 2013, dated 2016).
Entries after “also recorded” stand apart in the source; their conditions may differ. Where no end group is shown, it is not given here.

Legend:
[1] = system: CD11c+ cells; assay: Cell viability / direct cytotoxicity on drug exposure in vitro; settings: at the doses that inhibit trogocytosis (FIG. 3)
[2] = system: cross-dressed CD11c+ APC; assay: Drug inhibition of trogocytosis in MLR (frequency of cross-dressed CD11c+ APC by flow cytometry); assay type: cell-based, mice
Experimental: The frequency of cross-dressed CD11c+ APC on day 6 of MLR was assessed by flow cytometry.
Whether drugs can inhibit cross-dressed APCs from facilitating antigen presentation to donor T cells and prevent GVHD following allo-HSCT was tested. Cross-dressed donor CD11c+ APCs were generated in vivo following allo-HSCT (FIG. 1).

[3] = system: T cells; assay: T cell proliferation in primary MLR with drug-treated bone marrow; assay type: cell-based, mice

Molecule	cell viability / direct cytotoxic effects [1]	exchange of plasma membrane fragments (trogocytosis; frequency of cross-dressed CD11c+ APC) ([2]; in vitro generated cross-dressed CD11c+ cells, day 6 of MLR, flow cytometry (FIG. 3))	semi-direct presentation of allo-antigen to T cells ([2]; summary statement of the data)	T cell proliferation in primary MLR ([3]; bone marrow treated with 0.05 uM, compared to non-drug treated bone marrow)	allo-reactivity ([3]; summary statement of the data)	cell viability / direct cytotoxic effects ([1]; listed as VIP antagonist)
CC(=O)O[C@H]1C(=O)[C@@]2(C)[C@H]([C@H](OC(=O)c3ccccc3)[C@]3(O)C[C@H](OC(=O)[C@H](O)[C@@H](NC(=O)c4ccccc4)c4ccccc4)C(C)=C1C3(C)C)[C@]1(OC(C)=O)CO[C@@H]1C[C@@H]2O [paclitaxel]	without direct cytotoxic effects; also recorded: preserving cell viability	inhibited	reduce semi-direct presentation	significantly decreased	reduce allo-reactivity	–
KPRRPYTDNYTRLRKQMAVKKYLNSILN-NH2 [VIPHyb]	without direct cytotoxic effects	–	–	–	–	preserving cell viability
